Assay results: patent US10246466B2, “Diaryl macrocycles as modulators of protein kinases” (TP THERAPEUTICS, INC., priority 2014, dated 2019)

Key:
Type in all cases: cell-based
[1] = tested on: Essential thrombocythemia cell line SET-2 cells (harboring endogenous JAK2 point mutation); experiment: SET-2 cell proliferation assay (CellTiter-Glo); settings: Homo sapiens, 72 hours incubation, read-out: SET2 cell proli. IC50
[2] = tested on: Colorectal cell line KM12 (harboring endogenous TPM3-TRKA fusion gene); experiment: KM12 cell proliferation assay (CellTiter-Glo); settings: Homo sapiens, 72 hours incubation, read-out: KM 12 cell prolif. IC50
Description: (§1) Colorectal cell lines KM 12 (harboring endogenous TPM3-TRKA fusion gene) cells were cultured in DMEM medium, supplemented with 10% fetal bovine serum and 100 U/mL of penicillin/streptomycin. 5000 cells were seeded in 384 well white plate for 24 hours before compounds treatment. Cell proliferation was measured using CellTiter-Glo luciferase-based ATP detection assay (Promega) following the manufactures's protocol after 72 hours incubation. IC50 determinations were performed using GraphPad Prism software (GraphPad, Inc., San Diego, Calif.).
as §1, with “Alternatively: Colorectal” for “Colorectal”, “line KM12” for “lines KM 12”, “penicillin/streptomycin. […]” for “penicillin/streptomycin.”

[3] = tested on: T cell lymphoma Karpas-299 cell line (harboring endogenous NPM-ALK fusion gene); experiment: Karpas-299 cell proliferation assay (CellTiter-Glo); settings: Homo sapiens, 72 hours incubation, read-out: Karpas 299 cell proli. IC50

SMILES	IC50 [3]	IC50 [1]	IC50 [2]
[2H]C1([2H])NC(=O)c2cnn3ccc(nc23)N(C)Cc2cc(F)ccc2OC1([2H])[2H] [Example 87, 11-fluoro-14-methyl(6,6,7,7-^2H4)-6,7,13,14-tetrahydro-1,15-ethenopyrazolo[4,3-f][1,4,8,10]benzoxatriazacyclotridecin-4(5H)-one]	1590 nM	2730 nM	0.3 nM
C[C@@H]1CNC(=O)c2cnn3ccc(nc23)N(C)Cc2cc(F)ccc2O1 [Example 94, (7R)-11-fluoro-7,14-dimethyl-6,7,13,14-tetrahydro-1,15-ethenopyrazolo[4,3-f][1,4,8,10]benzoxatriazacyclotridecin-4(5H)-one]	> 10000 nM	> 10000 nM	0.2 nM
C[C@@H]1COc2ccc(F)cc2CN(C)c2ccn3ncc(c3n2)C(=O)N1 [Example 95, (6R)-11-fluoro-6,14-dimethyl-6,7,13,14-tetrahydro-1,15-ethenopyrazolo[4,3-f][1,4,8,10]benzoxatriazacyclotridecin-4(5H)-one]	4110 nM	2670 nM	0.4 nM
CN1Cc2cc(F)ccc2OCC(O)CNC(=O)c2cnn3ccc1nc23 (stereo not drawn) [Example 96, 12-fluoro-7-hydroxy-15-methyl-5,6,7,8,14,15-hexahydro-4H-1,16-ethenopyrazolo[4,3-g][1,5,9,11]benzoxatriazacyclotetradecin-4-one]	5000 nM	6000 nM	0.6 nM
C[C@H]1CNC(=O)c2cnn3ccc(nc23)N(C)Cc2cc(F)ccc2O1 [Example 97, (7S)-11-fluoro-7,14-dimethyl-6,7,13,14-tetrahydro-1,15-ethenopyrazolo[4,3-f][1,4,8,10]benzoxatriazacyclotridecin-4(5H)-one]	1420 nM	6500 nM	0.3 nM
CC(C)(O)CN1Cc2cc(F)ccc2OCCNC(=O)c2cnn3ccc1nc23 [Example 101, 11-fluoro-14-(2-hydroxy-2-methylpropyl)-6,7,13,14-tetrahydro-1,15-ethenopyrazolo[4,3-f][1,4,8,10]benzoxatriazacyclotridecin-4(5H)-one]	> 10000 nM	6000 nM	> 1000 nM
O=C1NCCOc2ccc(F)cc2CCc2ccn3ncc1c3n2 [Example 102, 11-fluoro-6,7,13,14-tetrahydro-1,15-ethenopyrazolo[4,3-f][1,4,8]benzoxadiazacyclotridecin-4(5H)-one]	2300 nM	2450 nM	1.2 nM
CN1Cc2cc(F)ccc2SCCNC(=O)c2cnn3ccc1nc23 [Example 104, 11-fluoro-14-methyl-6,7,13,14-tetrahydro-1,15-ethenopyrazolo[4,3-f][1,4,8,10]benzothiatriazacyclotridecin-4(5H)-one]	5750 nM	2350 nM	0.3 nM
CN1CCC(N2Cc3cc(F)ccc3OCCNC(=O)c3cnn4ccc2nc34)C1 (stereo not drawn) [Example 105, 11-fluoro-14-(1-methylpyrrolidin-3-yl)-6,7,13,14-tetrahydro-1,15-ethenopyrazolo[4,3-f][1,4,8,10]benzoxatriazacyclotridecin-4(5H)-one]	> 5000 nM	> 10000 nM	500 nM
CN1Cc2cc(F)ccc2[S+]([O-])CCNC(=O)c2cnn3ccc1nc23 (stereo not drawn) [Example 106, 11-fluoro-14-methyl-6,7,13,14-tetrahydro-1,15-ethenopyrazolo[4,3-f][1,4,8,10]benzothiatriazacyclotridecin-4(5H)-one 8-oxide]	> 10000 nM	> 10000 nM	176 nM
CN1Cc2cc(F)ccc2S(=O)(=O)CCNC(=O)c2cnn3ccc1nc23 [Example 107, 11-fluoro-14-methyl-6,7,13,14-tetrahydro-1,15-ethenopyrazolo[4,3-f][1,4,8,10]benzothiatriazacyclotridecin-4(5H)-one 8,8-dioxide]	> 10000 nM	3000 nM	75.6 nM
C[C@H]1CNC(=O)c2cnn3ccc(nc23)CCc2cc(F)ccc2O1 [Example 108, (7S)-11-fluoro-7-methyl-6,7,13,14-tetrahydro-1,15-ethenopyrazolo[4,3-f][1,4,8]benzoxadiazacyclotridecin-4(5H)-one]	619 nM	870 nM	3.6 nM
C[C@H]1COc2ccc(F)cc2[C@@H](C)Nc2ccn3ncc(c3n2)C(=O)N1 [Example 109, (6S,13R)-11-fluoro-6,13-dimethyl-6,7,13,14-tetrahydro-1,15-ethenopyrazolo[4,3-f][1,4,8,10]benzoxatriazacyclotridecin-4(5H)-one]	225 nM	398 nM	0.86 nM
C[C@@H]1COc2ccc(F)cc2[C@@H](C)Nc2ccn3ncc(c3n2)C(=O)N1 [Example 110, (6R,13R)-11-fluoro-6,13-dimethyl-6,7,13,14-tetrahydro-1,15-ethenopyrazolo[4,3-f][1,4,8,10]benzoxatriazacyclotridecin-4(5H)-one]	163 nM	219 nM	0.7 nM

Now from value to compound, other results behind:

IC50 [3]	SMILES	IC50 [1]	IC50 [2]
4200 nM	CC1Nc2ccn3ncc(c3n2)C(=O)NCCOc2ccc(Cl)cc21 (stereo not drawn) [Example 84, 11-chloro-13-methyl-6,7,13,14-tetrahydro-1,15-ethenopyrazolo[4,3-f][1,4,8,10]benzoxatriazacyclotridecin-4(5H)-one]	3150 nM	0.8 nM
1080 nM	CCC1Nc2ccn3ncc(c3n2)C(=O)NCCOc2ccc(F)cc21 (stereo not drawn) [Example 85, 13-ethyl-11-fluoro-6,7,13,14-tetrahydro-1,15-ethenopyrazolo[4,3-f][1,4,8,10]benzoxatriazacyclotridecin-4(5H)-one]	928 nM	0.9 nM
3130 nM	O=C1NCCOc2ccc(F)cc2C(c2ccccc2)Nc2ccn3ncc1c3n2 (stereo not drawn) [Example 88, 11-fluoro-13-phenyl-6,7,13,14-tetrahydro-1,15-ethenopyrazolo[4,3-f][1,4,8,10]benzoxatriazacyclotridecin-4(5H)-one]	1900 nM	50.4 nM
1400 nM	O=C1NCCOc2ccc(F)cc2C(CC2CC2)Nc2ccn3ncc1c3n2 (stereo not drawn) [Example 89, 13-(cyclopropylmethyl)-11-fluoro-6,7,13,14-tetrahydro-1,15-ethenopyrazolo[4,3-f][1,4,8,10]benzoxatriazacyclotridecin-4(5H)-one]	859 nM	0.2 nM
1650 nM	C[C@H]1Nc2ccn3ncc(c3n2)C(=O)NC[C@@H](O)COc2ccc(F)cc21 [Example 90, (7R,14R)-12-fluoro-7-hydroxy-14-methyl-5,6,7,8,14,15-hexahydro-4H-1,16-ethenopyrazolo[4,3-g][1,5,9,11]benzoxatriazacyclotetradecin-4-one]	5910 nM	1.8 nM
961 nM	C[C@H]1Nc2ccn3ncc(c3n2)C(=O)NC[C@H](O)COc2ccc(F)cc21 [Example 91, (7S,14R)-12-fluoro-7-hydroxy-14-methyl-5,6,7,8,14,15-hexahydro-4H-1,16-ethenopyrazolo[4,3-g][1,5,9,11]benzoxatriazacyclotetradecin-4-one]	1540 nM	1.8 nM
506 nM	O=C1NCCCOc2ccc(F)cc2C(CO)Nc2ccn3ncc1c3n2 (stereo not drawn) [Example 99, 12-fluoro-14-(hydroxymethyl)-5,6,7,8,14,15-hexahydro-4H-1,16-ethenopyrazolo[4,3-g][1,5,9,11]benzoxatriazacyclotetradecin-4-one]	6850 nM	6.3 nM
5360 nM	CC1c2cc(F)ccc2OCCNC(=O)c2cnn3ccc(nc23)N1C (stereo not drawn) [Example 100, 11-fluoro-13,14-dimethyl-6,7,13,14-tetrahydro-1,15-ethenopyrazolo[4,3-f][1,4,8,10]benzoxatriazacyclotridecin-4(5H)-one]	5830 nM	0.6 nM
329 nM	C[C@H]1CNC(=O)c2cnn3ccc(nc23)N[C@H](CO)c2cc(F)ccc2O1 [Example 111, (7S,13S)-11-fluoro-13-(hydroxymethyl)-7-methyl-6,7,13,14-tetrahydro-1,15-ethenopyrazolo[4,3-f][1,4,8,10]benzoxatriazacyclotridecin-4(5H)-one]	2000 nM	76 nM
